Data reported in BigSolDB 2.1.

COC(=O)c1cc(OC)c2c(c1-c1c(C(=O)OC)cc(OC)c3c1OCO3)OCO2
solubility (mole fraction)
Settings | 293.15 K | 303.15 K | 313.15 K | 323.15 K | 333.15 K
in acetone | 0.00457 | 0.0068 | 0.0104 | 0.0174 | –
in acetonitrile | 0.00542 | 0.00808 | 0.0123 | 0.0189 | –
in ethanol | 6.48e-05 | 0.000114 | 0.000277 | 0.000523 | 0.00102
in ethyl acetate | 0.00302 | 0.0044 | 0.00659 | 0.0103 | –
in isopropanol | 6.44e-05 | 0.00011 | 0.000223 | 0.000484 | 0.00107
in methanol | 7.18e-05 | 0.000121 | 0.000275 | 0.000459 | –
in methyl acetate | 0.00549 | 0.00775 | 0.0124 | 0.0193 | –
in n-butanol | 5.71e-05 | 0.000114 | 0.000214 | 0.000511 | 0.00104
in n-butyl acetate | 0.00137 | 0.00199 | 0.00318 | 0.00554 | 0.00831
in n-pentanol | 6.14e-05 | 0.000114 | 0.000199 | 0.000388 | 0.00104
in n-pentyl acetate | 0.0011 | 0.00154 | 0.00244 | 0.00387 | 0.00649
in n-propanol | 5.78e-05 | 0.000104 | 0.000211 | 0.000479 | 0.00107
in n-propyl acetate | 0.00171 | 0.00279 | 0.00423 | 0.00659 | 0.0117
